Results reported in US11702635B2, “Hematopoietic stem cell expansion method” (PLASTICELL LIMITED, priority 2017, dated 2023).

Experiments:
UCB CD133+ cells (HSPC) = test: Ex vivo expansion of umbilical cord blood CD133+ cells, flow cytometry and cell counting; type: cell-based, human; conditions: for fold expansion of total nucleated cells (TNC) compared to cells grown in basal media / fold expansion of HSC (Lin-, CD38-, CD34+, CD45RA-, CD133+, CD90+, CD49f+) higher than basal media containing cytokines: 5 day culture; for fold expansion of total nucleated cells (TNC) compared to cells grown in basal media: HDAC inhibitor with cytokines, with or without WR1065 (100 μM), vs basal media containing cytokines; for fold expansion of HSC compared to cells grown in basal media: expansion protocol as defined above, HDAC inhibitor with or without WR1065; for fold expansion of HSC (Lin-, CD38-, CD34+, CD45RA-, CD133+, CD90+, CD49f+) higher than basal media containing cytokines: scriptaid 1 μM, WR1065 100 μM, FIG. 3
Excerpt: Human UCB units were collected with written informed pre-consent and ethical approval from Oxford and Berkshire National Research Ethical Committees and studies conducted with approval of the NHSBT research committee. UCB mononuclear cells (MNC) were isolated by density gradient centrifugation on lymphocyte separation medium 1077 (PAA Laboratories, Pasching, Austria; density<1.077 g/ml). CD133+ cells were isolated from the MNC with immunomagnetic beads (Miltenyi Biotec, Germany). After isolation, the cells were cryopreserved in 10% DMSO in FCS (fetal calf serum) and stored at −150° C. in aliquots of 1×10^5 cells/vial. Cells were analysed for the purity of the isolation with flow cytometry on a BD LSR II (BD Biosciences, CA) using CD34-APC, CD133-PE and the appropriate isotype controls (all Miltenyi Biotec). Bone marrow derived CD133+ cells were obtained commercially from Lonza and peripheral blood CD133+ cells were isolated using immunomagnetic beads as above from total peripheral blood mononuclear cells obtained commercially from Lonza Biologics.
Vials from 2 or 3 donors were thawed and pooled in StemSpan ACF media (Stem Cell Technologies) containing 100 ng/mL SCF, 100 ng/mL FLT3LG and 20 ng/mL TPO (all from Miltenyi Biotec). After counting, cells were plated in 96 well round bottom suspension plates at 20,000 cells/well in the above media. Cells were allowed to recover overnight in these conditions in a 37° C. humidified incubator with 5% CO2.
The next day cells were harvested from the plates counted, and seeded into 24 well Nanex plates (Compass Biomedical) or standard tissue culture treated plates at 2500 cells/well in 1 mL basal media (StemSpan ACF with 100 ng/mL SCF, 100 ng/mL FLT3LG and 20 ng/mL TPO) containing an HDAC inhibitor (for most experiments scriptaid was used at a concentration of 1 μM). An aliquot of cells was used for CFU analysis and another for flow cytometry analysis.
After 3 days in culture the media was either replaced or supplemented with fresh media with the cytokines (SCF, TPO and FLT3LG) and the HDAC inhibitors (scriptaid 1 μM). Sixteen to twenty hours prior to harvest WR1065 was added at a concentration of 100 μM. After total of 5 days in expansion, cells are harvested, counted and analysed by flow cytometry.
Cells were harvested, washed and stained in 3% FBS in PBS using a panel of pre-conjugated antibodies. Cells were incubated with antibodies on ice for 30 min, then washed twice in 3% FBS in PBS and resuspended in 250 uL of above buffer before being analysed using a BD Canto II flow cytometer. [Antibody panel was as follows: 5 Lin custom cocktail (CD235a, CD4, CD10, CD11b and CD19) APC-Vio770, CD38-PE-Vio770, CD34-PerCP-Vio700, CD133-PE, CD45RA-VioBlue, CD49f-FITC, CD90-APC (all from Miltenyi Biotec).]
Cell number was measured using flow cytometry with the aid of counting beads (CountBright beads Life Technologies).

[1] = tested on: bone marrow derived CD34+ cells; conditions: pre-treatment of cells in vitro; cited from earlier work
[2] = UCB cells from three separate donors and a pooled sample, FIG. 13

## Nc1cc(F)ccc1NC(=O)/C=C/c1cnn(C/C=C/c2ccccc2)c1 [RGFP966]
UCB CD133+ cells (HSPC)
  fold expansion of total nucleated cells (TNC) compared to cells grown in basal media: increase
  fold expansion of HSC compared to cells grown in basal media: similar

## Cc1cc(C)cc(C(=O)NOCCCCCC(=O)NO)c1 [LMK235]
UCB CD133+ cells (HSPC)
  fold expansion of total nucleated cells (TNC) compared to cells grown in basal media: slightly lower
  fold expansion of HSC compared to cells grown in basal media: significantly increased

## Cn1cc(CNCC2CCN(c3ncc(C(=O)NO)cn3)CC2)c2ccccc21 [quisinostat]
UCB CD133+ cells (HSPC)
  fold expansion of total nucleated cells (TNC) compared to cells grown in basal media: slightly lower
  fold expansion of HSC compared to cells grown in basal media: significantly increased

## O=C(CCCCCN1C(=O)c2cccc3cccc(c23)C1=O)NO [scriptaid]
UCB CD133+ cells (HSPC)
  fold expansion of total nucleated cells (TNC) compared to cells grown in basal media: slightly reduced
  fold expansion of HSC (Lin-, CD38-, CD34+, CD45RA-, CD133+, CD90+, CD49f+) higher than basal media containing cytokines: approximately 10 fold
UCB CD133+ cells (HSPC); Nanex scaffolds, TC treated Corning 24 well plates or suspension Greiner Bio 24 well plates, effect similar across all surfaces, FIG. 14
  fold expansion of HSC compared to cells cultured in basal media, different culture plates: significantly increased
UCB CD133+ cells (HSPC); [2]
  fold expansion of HSC higher compared to basal media, average: 30 fold
  fold expansion of HSC higher compared to basal media, range: 10-55 fold
UCB CD133+ cells (HSPC); after 5 days in culture
  proportion of CD133+/CD34+ cells compared to cells grown on cytokines alone: increase

## sodium phenylbutyrate
UCB CD133+ cells (HSPC)
  fold expansion of total nucleated cells (TNC) compared to cells grown in basal media: increase
  fold expansion of HSC compared to cells grown in basal media: increased

## CN1CCc2c(c3ccccc3n2Cc2ccc(C(=O)NO)cc2)C1 [Tubastatin A]
UCB CD133+ cells (HSPC)
  fold expansion of total nucleated cells (TNC) compared to cells grown in basal media: similar
  fold expansion of HSC compared to cells grown in basal media: significantly increased

## NCCCNCCS [WR1065]
[1]
  enhancement of formation of CFU-GEMM and BFU-E colonies: ≤ 38 fold
UCB CD133+ cells (HSPC)
  fold expansion of HSC (Lin-, CD38-, CD34+, CD45RA-, CD133+, CD90+, CD49f+) higher than basal media containing cytokines: around 3 fold
